Test results taken from paper PMC3669292, “Neuroprotective Efficacy of a New Brain-Penetrating C-Abl Inhibitor in a Murine Parkinson’s Disease Model” (PLoS ONE, 2013).
Blank lines part the entries; values can stand above or below the compound they belong to.

Key:
[1] = cited from earlier work
[2] = Brain levels of INNO-406 in C57 mice after single i.p. injection; type: in vivo; details: for Brain level of INNO-406: C57 mice
Description: For pharmacokinetic studies, INNO-406 was injected at 2.5 mg/kg/i.p. or 10 mg/kg/i.p. in C57 mice and brains were harvested 1 h, 4 h, and 24 h after a single injection. In another study, INNO-406 was injected at 2.5 mg/kg/i.p. or 10 mg/kg/i.p. in C57 mice in the presence or absence of MPTP (4×20 mg/kg/i.p. at 2 h interval) after last injection of MPTP and brains were harvested 1 h, 4 h, and 24 h after a single injection of INNO-406. Finally, brain levels of MPP+ in C57 mice were measured 1 h, 4 h, and 24 h after single injection of MPTP (60 mg/kg/i.p.) in the presence or absence of a single injection of INNO-406 (2.5 mg/kg/i.p. or 10 mg/kg/i.p.).
The concentrations of both drugs, Imatinib and INNO-406, were analyzed by a rapid HPLC separation and UV-VIS detection. Briefly, the isocratic HPLC analysis for both Imatinib and INNO-406 were achieved on a C18 Zorbax column (150×4.6 mm, 5 um) (Phenomenex, Torrance, CA) with a simple mobile phase consisting of methanol and deionized water (50∶50% v/v/) at a flow rate of 1.0 ml/min. The effluents were monitored at 223 nm and quantified using the area under the peak from standard solutions dissolved in assay II buffer (0.4 to 25 µg/ml). Assay II buffer consisted of sodium chloride (122 mM), potassium chloride (3 mM), calcium chloride (1.4 mM), magnesium sulfate (1.2 mM), sodium bicarbonate (25 mM), HEPES (10 mM), d-glucose (10 mM) and potassium phosphate (0.4 mM) at Ph of 7.4.

[3] = Directional permeability of drug analogues across primary BBMEC monolayers (in vitro BBB model); type: in vitro ADME, bovine; details: bovine, pH 7.4, donor 10 µM, 0–90 min, mean ± SD, n = 3; for Papp A→B at 10 µM: apical-to-basolateral, read-out: Apparent Permeability Coefficient A → B; for Papp B→A at 10 µM: basolateral-to-apical, read-out: Apparent Permeability Coefficient B → A
Description: (§1) The BBMEC were isolated by a modified method previously described. Briefly, the meninges were removed from the gray matter of fresh cow cerebral cortices and mechanically homogenized through a 100 μm mesh screen. Dispase II enzyme (5 mg/ml) reconstituted in MEM isolation media (MEM ([…]), HEPES (50 mM), polymyxin B (50 ug/ml), gentamicin (50 ug/ml) and amphotercin B (2.5 ug/ml) at pH 7.4) was added to the freshly homogenized cerebral cortical tissue (10 mg/g brain tissue) and MEM isolation media at […] was added (equal w/w of brain tissue). The mixture was placed in an incubated shaker for one hour (37°C, 150 rpm). Following this incubation, the supernatant was removed by centrifugation (10 min at 1570 rcf). […] The crude capillary pellet was collected and re-suspended in a collagenase/dispase (5 mg/ml) solution at a final concentration of 0.1% (v/w) and placed in an incubated shaker (37°C, 150 rpm) for one hour. […] The digested capillaries were centrifuged (10 min, 1700 rcf) to remove the enzymatic treatment and re-suspended in isolation media and pipetted into the percoll gradient tubes. The BBMEC cells were then separated by centrifugation (10 min at 1700 rcf). […] The BBMEC were plated (approximately 50,000 cells/cm^2 density) on collagen-coated, fibronectin-treated culture plates, and incubated in a humidified incubator (37°C with 5% (v/v) CO2). The cells were used after reaching confluence, typically 8-12 days. The concentrations of both drugs, Imatinib and INNO-406, were analyzed by a rapid HPLC separation and UV-VIS detection. […] The effluents were monitored at 223 nm and quantified using the area under the peak from standard solutions dissolved in assay II buffer (0.4 to 25 μg/ml). Assay II buffer consisted of sodium chloride (122 mM), potassium chloride (3 mM), calcium chloride (1.4 mM), magnesium sulfate (1.2 mM), sodium bicarbonate (25 mM), HEPES (10 mM), d-glucose (10 mM) and potassium phosphate (0.4 mM) at Ph of 7.4. The directional comparison of drug analogues transported in primary BBMEC monolayers was determined. These methods have been previously described, [21]. Briefly, the freshly isolated BBMEC were plated in triplicates (50,000 cells/cm^2 seeding density) on collagen-coated, fibronectin-treated polycarbonate membrane inserts, and cultured until confluence (12 mm; 0.4 μm pore size, Costar TranswellTM 12-well, Cambridge, MA). Complete culture media from confluent BBMEC monolayers was replaced 24-hours prior to the start of the experiment. The confluent monolayers were mounted in side-by-side diffusion chambers ([…]) either the apical or the basolateral sides were supplied with fresh assay II buffer with drug (donor chamber, 10 μM). Samples (100 μl) were removed from the […] compartment at various time points (0-90 min) and replaced with fresh buffer. The concentration of drug in the samples was determined spectrophotometrically by HPLC methodology reported above ([…]). The directional transport was expressed as the percent of the respective drug across the BBMEC monolayers over time (Mean ± SD, n = 3).

BBMEC monolayers = assay: as above; type: in vitro ADME, bovine; details: for Apparent Permeability Ratio A → B/B→ A: mean ± SD, n = 3
Description: as §1

SH-SY5Y cells = assay: Lactate dehydrogenase cytotoxicity assay, MPP+-treated cells; type: cell-based; details: 6 h pretreatment with 0.5 or 1.0 µM; MPP+ 500 µM; 24 h after exposure
Description: The release of lactate dehydrogenase for cytotoxicity was measured by LDH assay kit (Roche#11644793001). A 100 µL of the supernatant from treated cells was transferred to new 96-well plates. The plates were incubated for 30 min at room temperature on orbital shaker. A colorimetric absorbance was recorded at 490 nm with a reference wavelength of 650 nm using a micro plate reader for colorimetric detection (BioTek, USA). Each experiment was done in triplicate. Cytotoxicity is expressed in terms of percent relative to the basal lactate dehydrogenase release by untreated control cells where controls cells serve as 100 percent.
Figure 4 INNO-406 prevents dopaminergic depletion and c-Abl mediated parkin phosphorylation in mice striatum. (A) INNO-406 prevents MPTP-induced depletion of striatal dopamine and its metabolites DOPAC and HVA in adult male C57BL/J6 mice. Animals received INNO-406 (10 mg/kg, i.p.) as a single daily injection for 7 days before MPTP injection. […] The optical density quantification data as normalized amounts is presented. * Considered statistically significant from control (p<0.05). ** Considered statistically significant from MPTP (p<0.05). (C) Cytotoxicity plotted as a percentage of control as measured by LDH in SH-SY5Y cells treated with MPP^+ (500 µM). […] Differences among means were analyzed using one-way analysis of variance (ANOVA). […]

Bcr-Abl = details: preclinical studies; cited from earlier work
[4] = test system: c-Abl activation, parkin tyrosine phosphorylation, AIMP2 accumulation; assay: Immunoprecipitation/immunoblot of striatal lysates of MPTP-treated mice; type: in vivo, C57BL/6 mice; details: 10 mg/kg i.p. daily one week before and one week after MPTP; vs MPTP alone
[5] = test system: MPTP-induced dopaminergic damage in C57BL/6 mice; assay: MPTP mouse model of PD: TH+ neuron stereology, striatal TH optical density, striatal dopamine; type: in vivo
[6] = INNO-406 10 mg/kg i.p. without MPTP

Brain level of INNO-406 ([2]; 1 h after single injection of 10 mg/kg i.p.): 50 ng
Brain level of INNO-406 ([2]; 4 h after single injection of 10 mg/kg i.p.): 80 ng
Brain level of INNO-406 ([2]; 24 h after single injection of 10 mg/kg i.p.): 65 ng
Effect of multiple MPTP injections on brain levels of INNO-406 ([2]; MPTP 4×20 mg/kg i.p. at 2 h interval, INNO-406 2.5 or 10 mg/kg i.p., 1, 4, 24 h): not altered
Papp A→B at 10 µM [3]: 98 ± 6.74 ×10⁻⁶ cm/s
Papp B→A at 10 µM [3]: 94.5 ± 10.1 ×10⁻⁶ cm/s
Enhancement of apical-to-basolateral transport across BBMEC monolayers compared to Imatinib (BBMEC monolayers; apical-to-basolateral, vs Imatinib): approximately 7.5 fold
Apparent Permeability Ratio A → B/B→ A (BBMEC monolayers): 1.00±0.119
Compound: Cc1ccc(NC(=O)c2ccc(CN3CC[C@H](N(C)C)C3)c(C(F)(F)F)c2)cc1Nc1nccc(-c2cncnc2)n1 [INNO-406]
Entry into brain [1]: significantly enter brain
MPP+-induced cytotoxicity (LDH release) (SH-SY5Y cells): prevented
Potency relative to Imatinib in vivo (Bcr-Abl): ≥ 10 fold
Striatal level of AIMP2 [4]: significant decreases
Striatal level of phospho-c-Abl [4]: significant decreases
Striatal level of phospho-parkin [4]: significant decreases
Loss of TH staining intensity in striatum in MPTP mice that also received INNO-406 ([5]; 10 mg/kg i.p. daily one week before and after MPTP, relative to controls, MPTP alone 70% loss): 35%
Prevention (decrease) of loss of dopamine (and DOPAC, HVA) in the striatum ([5]; 10 mg/kg i.p. daily one week before and one week after MPTP 4×20 mg/kg i.p. every 2 h): 45%
MPTP-induced loss of TH+ neurons in the SNpc in mice also treated with INNO-406 ([5]; 10 mg/kg i.p. daily one week before and one week after MPTP 4×20 mg/kg, vs saline, MPTP alone 60–65% loss): 15–20%
Organization and intensity of TH-immunoreactive neurons in SNpc, INNO-406 alone vs saline [5, 6]: essentially similar
TH immunoreactivity within the striatum, INNO-406 alone vs control [5, 6]: similar

Papp A→B at 10 µM [3]: 12.96 ± 0.07 ×10⁻⁶ cm/s
Papp B→A at 10 µM [3]: 63.86 ± 0.23 ×10⁻⁶ cm/s
Apparent Permeability Ratio A → B/B→ A (BBMEC monolayers): 0.20±0.001
Compound: Cc1ccc(NC(=O)c2ccc(CN3CCN(C)CC3)cc2)cc1Nc1nccc(-c2cccnc2)n1 [Imatinib]
Brain bioavailability [1]: limited brain bioavailability
Capacity to cross blood-brain barrier [1]: minimal capacity to cross blood-brain barrier
